pEC50: −log10 of the molar value.

The results in this text go back to patent US20230295115A1, “SUBSTITUTED ISOQUINOLINYLMETHYL AMIDES, ANALOGUES THEREOF, AND METHODS USING SAME” (priority 2020, published 2023).

The test system of one experiment is HBV rcDNA. As to the kind of experiment: HepDE19 assay with bDNA quantitation of HBV rcDNA. The following applies: HepDE19 cells, 7 day incubation, rcDNA measured by Quantigene 2.0 bDNA assay, top concentration 25 μM; read-out: DE-19bDNA EC50. The experiment is classed as cell-based, hepatitis B virus (HBV). In outline:
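HepDE19 cells were switched to tetracycline-free medium and exposed to compound (0.5% DMSO final) for 7 days at 37° C. rcDNA was then quantified by bDNA with an HBV-specific probe set. In parallel, viability was read as ATP content (CellTiter-Glo) after 4 days on replicate plates.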
On to `CC(c1c[nH]c(=O)c2cc(F)c(F)cc12)N(C)C(=O)C1Cc2c(F)cc(F)cc2N1` (centres unmarked) [Compound 99, N-(1-(6,7-Difluoro-1-oxo-1,2-dihydroisoquinolin-4-yl)ethyl)-4,6-difluoro-N-methylindoline-2-carboxamide], for which the pEC50 was 7.15.
On the same count and under the same terms, the same measure for `CC(c1c[nH]c(=O)c2cc(F)c(F)cc12)N(C)C(=O)C1Cc2c(F)cc(F)cc2N1` (centres unmarked) [Compound 100, N-(1-(6,7-Difluoro-1-oxo-1,2-dihydroisoquinolin-4-yl)ethyl)-4,6-difluoro-N-methylindoline-2-carboxamide]: 6.10; for `CC(c1c[nH]c(=O)c2cc(F)c(F)cc12)N(C)C(=O)C1Cc2c(F)cc(F)cc2N1` (centres unmarked) [Compound 101, N-(1-(6,7-Difluoro-1-oxo-1,2-dihydroisoquinolin-4-yl)ethyl)-4,6-difluoro-N-methylindoline-2-carboxamide]: 7.52.
Still for that read-out and setting: the same measure for `CC(c1c[nH]c(=O)c2c(F)c(F)ccc12)N(C)C(=O)C1Nc2ccccc2C1(C)C` (centres unmarked) [Compound 105, N-(1-(7,8-Difluoro-1-oxo-1,2-dihydroisoquinolin-4-yl)ethyl)-N,3,3-trimethylindoline-2-carboxamide]: not above 4.60.
Take `CC(c1c[nH]c(=O)c2c(F)c(F)ccc12)N(C)C(=O)C1Nc2ccccc2C1(C)C` (centres unmarked) [Compound 106, N-(1-(7,8-Difluoro-1-oxo-1,2-dihydroisoquinolin-4-yl)ethyl)-N,3,3-trimethylindoline-2-carboxamide]: the pEC50 is not above 4.60.
Still for that read-out and setting: the same measure for `CC(c1c[nH]c(=O)c2c(F)c(F)ccc12)N(C)C(=O)C1Nc2ccccc2C1(C)C` (centres unmarked) [Compound 107, N-(1-(7,8-Difluoro-1-oxo-1,2-dihydroisoquinolin-4-yl)ethyl)-N,3,3-trimethylindoline-2-carboxamide]: 4.80.
Same read-out and setting: the same measure for `CC(c1c[nH]c(=O)c2cc(F)c(F)cc12)N(C)C(=O)C1Nc2ccccc2C1(C)C` (centres unmarked) [Compound 113, N-(1-(6,7-Difluoro-1-oxo-1,2-dihydroisoquinolin-4-yl)ethyl)-N,3,3-trimethylindoline-2-carboxamide]: not above 4.60.
The same measure, in the same setting: with `CC(c1c[nH]c(=O)c2cc(F)c(F)cc12)N(C)C(=O)C1Nc2ccccc2C1(C)C` (centres unmarked) [Compound 114, N-(1-(6,7-Difluoro-1-oxo-1,2-dihydroisoquinolin-4-yl)ethyl)-N,3,3-trimethylindoline-2-carboxamide] the figure was 4.80; with `CC(c1c[nH]c(=O)c2cc(F)c(F)cc12)N(C)C(=O)C1Nc2ccccc2C1(C)C` (centres unmarked) [Compound 115, N-(1-(6,7-Difluoro-1-oxo-1,2-dihydroisoquinolin-4-yl)ethyl)-N,3,3-trimethylindoline-2-carboxamide], 4.72.
As for `CC(c1cn(C)c(=O)c2cc(F)c(F)cc12)N(C)C(=O)[C@@H]1Cc2ccccc2N1` (stereo partly drawn) [Compound 183, (2S)-N-(1-(6,7-difluoro-2-methyl-1-oxo-1,2-dihydroisoquinolin-4-yl)ethyl)-N-methylindoline-2-carboxamide], the pEC50 was 7.15.
The same measure, in the same setting: with `CC(c1cn(C)c(=O)c2cc(F)c(F)cc12)N(C)C(=O)[C@@H]1Cc2ccccc2N1` (stereo partly drawn) [Compound 184, (2S)-N-(1-(6,7-difluoro-2-methyl-1-oxo-1,2-dihydroisoquinolin-4-yl)ethyl)-N-methylindoline-2-carboxamide] the figure was 5.38.

The experiment is the same for the next values; noted with them: Hepatitis B virus, HepDE19, 168 h, HepDE19 cells, 7 day incubation, rcDNA measured by Quantigene 2.0 bDNA assay, top concentration 25 μM; read-out: DE-19bDNA EC50.
For the molecule `CC(c1c[nH]c(=O)c2c(F)c(F)ccc12)N(C)C(=O)C1Nc2ccccc2C1(C)C` (centres unmarked) [Compound 104, N-(1-(7,8-Difluoro-1-oxo-1,2-dihydroisoquinolin-4-yl)ethyl)-N,3,3-trimethylindoline-2-carboxamide], the pEC50 was not above 4.60.
Regarding `CC(c1c[nH]c(=O)c2cc(F)c(F)cc12)N(C)C(=O)C1Nc2ccccc2C1(C)C` (centres unmarked) [Compound 112, N-(1-(6,7-Difluoro-1-oxo-1,2-dihydroisoquinolin-4-yl)ethyl)-N,3,3-trimethylindoline-2-carboxamide], the pEC50 is 4.68.
On the same count and under the same terms, the same measure for `C[C@H](c1c[nH]c(=O)c2ccccc12)N(C)C(=O)c1ccc(C(F)(F)F)c(F)c1` [Compound 145, (R)-3-Fluoro-N-methyl-N-(1-(1-oxo-1,2-dihydroisoquinolin-4-yl)ethyl)-4-(trifluoromethyl)benzamide]: 6.96; for `C[C@H](c1c[nH]c(=O)c2ccccc12)N(C)C(=O)c1ccc(C(F)(F)F)cc1` [Compound 147, (R)-N-Methyl-N-(1-(1-oxo-1,2-dihydroisoquinolin-4-yl)ethyl)-4-(trifluoromethyl)benzamide]: 6.80.
Same read-out and setting: the same measure for `C[C@H](c1c[nH]c(=O)c2ccccc12)N(C)C(=O)c1ccc(Cl)c(F)c1` [Compound 148, (R)-4-Chloro-3-fluoro-N-methyl-N-(1-(1-oxo-1,2-dihydroisoquinolin-4-yl)ethyl)benzamide]: 6.57.
Same read-out and setting: with `C[C@H](c1c[nH]c(=O)c2ccccc12)N(C)C(=O)c1ccc(F)c(Cl)c1` [Compound 149, (R)-3-Chloro-4-fluoro-N-methyl-N-(1-(1-oxo-1,2-dihydroisoquinolin-4-yl)ethyl)benzamide] the figure was 6.17.
For the molecule `C[C@H](c1c[nH]c(=O)c2ccccc12)N(C)C(=O)c1ccc(Br)c(F)c1` [Compound 150, (R)-4-Bromo-3-fluoro-N-methyl-N-(1-(1-oxo-1,2-dihydroisoquinolin-4-yl)ethyl)benzamide], the pEC50 was 6.29.
For `C[C@H](c1c[nH]c(=O)c2ccccc12)N(C)C(=O)Cc1ccc(Cl)cc1` [Compound 151, (R)-2-(4-Chlorophenyl)-N-methyl-N-(1-(1-oxo-1,2-dihydroisoquinolin-4-yl)ethyl)acetamide], the pEC50 was 5.45.
Same read-out and setting: the same measure for `C[C@H](c1c[nH]c(=O)c2ccccc12)N(C)C(=O)c1cc2cc(F)ccn2c1` [Compound 153, (R)-7-Fluoro-N-methyl-N-(1-(1-oxo-1,2-dihydroisoquinolin-4-yl)ethyl)indolizine-2-carboxamide]: 6.46; for `C[C@H](c1c[nH]c(=O)c2ccccc12)N(C)C(=O)c1cc2c(Cl)cccn2c1` [Compound 154, (R)-8-Chloro-N-methyl-N-(1-(1-oxo-1,2-dihydroisoquinolin-4-yl)ethyl)indolizine-2-carboxamide]: 6.85.
The same measure, in the same setting: the same measure for `C[C@H](c1c[nH]c(=O)c2ccccc12)N(C)C(=O)c1cc2ccccc2[nH]1` [Compound 155, (R)-N-Methyl-N-(1-(1-oxo-1,2-dihydroisoquinolin-4-yl)ethyl)-1H-indole-2-carboxamide]: 6.77.
Still for that read-out and setting: with `C[C@H](c1c[nH]c(=O)c2ccccc12)N(C)C(=O)c1cc2c(F)cccc2[nH]1` [Compound 156, (R)-4-Fluoro-N-methyl-N-(1-(1-oxo-1,2-dihydroisoquinolin-4-yl)ethyl)-1H-indole-2-carboxamide] the figure was 6.92; with `C[C@H](c1c[nH]c(=O)c2ccccc12)N(C)C(=O)c1cc2c(F)cc(F)cc2[nH]1` [Compound 158, (R)-4,6-Difluoro-N-methyl-N-(1-(1-oxo-1,2-dihydroisoquinolin-4-yl)ethyl)-1H-indole-2-carboxamide], 6.89; with `C[C@H](c1c[nH]c(=O)c2ccccc12)N(C)C(=O)c1cc2cc(F)c(F)cc2[nH]1` [Compound 159, (R)-5,6-Difluoro-N-methyl-N-(1-(1-oxo-1,2-dihydroisoquinolin-4-yl)ethyl)-1H-indole-2-carboxamide], 7.00.
For the molecule `C[C@H](c1c[nH]c(=O)c2ccccc12)N(C)C(=O)[C@@H]1Cc2ccccc2N1` [Compound 160, (S)-N-Methyl-N-((R)-1-(1-oxo-1,2-dihydroisoquinolin-4-yl)ethyl)indoline-2-carboxamide], the negative logarithm of the EC50 (pEC50) was 6.41.

The experiment is the same for the next values; noted with them: Hepatitis B virus, HepDE19, 168 h, read-out: DE-19bDNA EC50 (μM), HepDE19 cells, 7 day incubation, rcDNA measured by Quantigene 2.0 bDNA assay, top concentration 25 μM.
For the molecule `C[C@H](c1c[nH]c(=O)c2ccccc12)N(C)C(=O)c1ccc(Br)cc1` [Compound 146, (R)-4-Bromo-N-methyl-N-(1-(1-oxo-1,2-dihydroisoquinolin-4-yl)ethyl)benzamide], the EC50 was found to be 0.15 µM.
Same read-out and setting: with `C[C@H](c1c[nH]c(=O)c2ccccc12)N(C)C(=O)c1cc2ccccn2c1` [Compound 152, (R)-N-Methyl-N-(1-(1-oxo-1,2-dihydroisoquinolin-4-yl)ethyl)indolizine-2-carboxamide] the figure was 0.47 µM; with `C[C@H](c1c[nH]c(=O)c2ccccc12)N(C)C(=O)c1cc2cc(F)ccc2[nH]1` [Compound 157, (R)-5-Fluoro-N-methyl-N-(1-(1-oxo-1,2-dihydroisoquinolin-4-yl)ethyl)-1H-indole-2-carboxamide], 0.15 µM.
The same measure, in the same setting: with `C[C@H](c1c[nH]c(=O)c2cc(F)c(F)cc12)N(C)C(=O)c1ccc2cccn2c1` [Compound 185, (R)-N-(1-(6,7-Difluoro-1-oxo-1,2-dihydroisoquinolin-4-yl)ethyl)-N-methylindolizine-6-carboxamide] the figure was 0.04 µM; with `C[C@H](c1c[nH]c(=O)c2cc(F)c(F)cc12)N(C)C(=O)c1cc2sc(Cl)cc2[nH]1` [Compound 186, (R)-2-Chloro-N-(1-(6,7-difluoro-1-oxo-1,2-dihydroisoquinolin-4-yl)ethyl)-N-methyl-4H-thieno[3,2-b]pyrrole-5-carboxamide], 0.03 µM; with `C[C@H](c1c[nH]c(=O)c2cc(F)c(F)cc12)N(C)C(=O)c1ccn2cccc2c1` [Compound 187, (R)-N-(1-(6,7-Difluoro-1-oxo-1,2-dihydroisoquinolin-4-yl)ethyl)-N-methylindolizine-7-carboxamide], 0.18 µM.

As a reminder, the pEC50 is the EC50 on a negative log10 scale, so that one unit is a factor of ten.
